Data taken from patent EP4361157A1, “FUSED TETRACYCLIC COMPOUND, PREPARATION METHOD THEREFOR AND APPLICATION THEREOF IN MEDICINE” (Jiangsu Hengrui Pharmaceuticals Co., Ltd., priority 2021, dated 2022).

Experiments:
Assay type in all cases: cell-based
AGS cells [1] = test: Inhibition of ERK phosphorylation of AGS cells (HTRF method); conditions: Homo sapiens, AGS, phosphorylated ERK/total ERK ratio, 1 h incubation
Protocol: AGS cells (Nanjing Cobioer, CBP60476) were cultured in RPMI1640 (Hyclone, SH30809.01) complete medium containing 10% fetal bovine serum. On the first day of the experiment, the AGS cells were seeded into a 96-well plate with complete medium at a density of 40,000 cells/well to form 190 µL of cell suspension per well. The plate was incubated overnight in a cell incubator at 37 °C with 5% CO2.
The next day, 10 µL of serially-diluted test compound prepared from the complete medium was added to each well. The final concentrations of the compound were 9 concentration points obtained by 5-fold serial dilution from 10 µM. A blank control containing 0.5% DMSO was set. The well plate was incubated in a cell incubator at 37 °C with 5% CO2 for 1 h. After completion of incubation, the 96-well cell culture plate was taken out, the medium was removed by pipetting, 200 µL PBS (Shanghai BasalMedia Technologies Co., Ltd., B320) was added to each well, and the cells were washed once. PBS was removed by pipetting, 50 µL of lysis buffer (Cisbio, 64KL1FDF) containing a blocking solution (blocking reagent, Cisbio, 64KB1AAC) was added to each well, and the well plate was lysed on a shaker for 40 min at room temperature with shaking. After lysis, the lysate was pipetted and mixed well, 16 µL of lysate was transferred to two HTRF 96-well assay plates (Cisbio, 66PL96100) per well, and then 4 µL of premixed phosphorylated ERK1/2 antibody solution (Cisbio, 64AERPEG) or 4 µL of premixed total ERK1/2 antibody solution (Cisbio, 64NRKPEG) was added to these two plates. The microplate was sealed with a sealing membrane, centrifuged for 1 min in a microplate centrifuge, and incubated overnight at room temperature in the dark. On the third day, the fluorescence values at an excitation wavelength of 337 nm and at emission wavelengths of 665 nm and 620 nm were read using an ENVISION multifunctional microplate reader (PerkinElmer, ENVISION).
Table 1. Inhibitory activity data for ERK phosphorylation of AGS cells

AGS cells [2] = test: Inhibition of 3D proliferation of AGS cells (CellTiter-Glo 3D); conditions: Homo sapiens, 120 h incubation
Protocol: AGS cells (Nanjing Cobioer, CBP60476) were cultured in a complete medium, namely RPMI1640 medium (Hyclone, SH30809.01) containing 10% fetal bovine serum (Corning, 35-076-CV). On the first day of the experiment, the AGS cells were seeded into a 96-well low adsorption plate (Corning, CLS7007-24EA) at a density of 1,000 cells/well using complete medium to form 90 µL of cell suspension per well. The plate was centrifuged at 2,000rpm for 5 min at room temperature and then incubated overnight in a cell incubator at 37 °C with 5% CO2.
(§1) The next day, 10 µL of serially-diluted test compound prepared from the complete medium was added to each well. The final concentrations of the compound of GP2d cells were 9 concentration points obtained by 3-fold serial dilution from 1 µM, and the final concentrations of the compound of AGS cells were 9 concentration points obtained by 3-fold serial dilution from 10 µM. A blank control containing 0.5% DMSO was set. The well plate was incubated in a cell incubator at 37 °C with 5% CO2 for 120 h. On the seventh day, the 96-well cell culture plate was taken out, 50 µL CellTiter-Glo® 3D reagent (Promega, G9682) was added into each well, the plate was shaken at room temperature for 25 min, pipetted and mixed well, 50 µL of the solution was transferred into a white impermeable 96-well plate (PE, 6005290), and the luminescence signal values were read using a multifunctional microplate reader (PerkinElmer, ENVISION).
(§2) Table 2. Inhibitory activity data for 3D proliferation of AGS and GP2d cells

GP2d cells = test: Inhibition of 3D proliferation of GP2d cells (CellTiter-Glo 3D); conditions: 120 h incubation
Protocol: GP2d cells (Nanjing Cobioer, CBP60010) were cultured in a complete medium, namely DMEM/high glucose medium (Hyclone, SH30243.01) containing 10% fetal bovine serum (Corning, 35-076-CV). On the first day of the experiment, GP2d cells were seeded into a 96-well low adsorption plate (Corning, CLS7007-24EA) with complete medium at a density of 1,000 cells/well to form 90 µL of cell suspension per well. The plate was centrifuged at 2,000 rpm for 5 min at room temperature and then incubated overnight in a cell incubator at 37 °C with 5% CO2.
as §1, §2

`CCc1cccc2cc(O)cc(-c3nc4c5c(nc(OC[C@@]67CCCN6C[C@H](F)C7)nc5c3F)N3C[C@H]5CC[C@H](N5)[C@H]3CO4)c12` [Example 4-p1, 5-Ethyl-4-((5aS,6S,9R)-1-fluoro-12-(((2R,7aS)-2-fluorotetrahydro-1H-pyrrolizin-7a(5H )-yl)methoxy)-5a,6,7,8,9,10-hexahydro-5H-4-oxa-3,10a,11,13,14-pentaaza-6,9-methanonaphtho[1,8-ab]heptalen-2-yl)naphthalen-2-ol] was tested, and the IC50 (AGS cells [1]) was 2 nM, the IC50 (AGS cells [2]) was 14.5 nM and the IC50 (GP2d cells) was 0.8 nM.
`CCc1c(F)ccc2cc(O)cc(-c3nc4c5c(nc(OCC6(CN7CCC[C@H]7CO)CC6)nc5c3F)N3C[C@H]5CC[C@H](N5)[C@H]3CO4)c12` [Example 17, 5-Ethyl-6-fluoro-4-((5aS,6S,9R)-1-fluoro-12-((1-(((S)-2-(hydroxymethyl)pyrrolidin-1-yl)methyl)cyclopropyl)methoxy)-5a,6,7,8,9,10-hexahydro-5H-4-oxa-3,10a,11,13,14-pentaaza-6,9-methanonaphtho[1,8-ab]heptalen-2-yl)naphthalen-2-ol] was tested, and the IC50 (AGS cells [1]) was 2.8 nM, the IC50 (AGS cells [2]) was 52.2 nM and the IC50 (GP2d cells) was 4.9 nM.
For `Oc1cc(Cl)c(C2CC2)c(-c2nc3c4c(nc(OC[C@@]56CCCN5C[C@H](F)C6)nc4c2F)N2C[C@H]4CC[C@H](N4)[C@H]2CO3)c1` [Example 6-p1, 3-Chloro-4-cyclopropyl-5-((5aS,6S,9R)-1-fluoro-12-(((2R,7aS)-2-fluorotetrahydro-1H-pyrrolizin-7a(5H)-yl)methoxy)-5a,6,7,8,9,10-hexahydro-5H-4-oxa-3,10a,11,13,14-pentaaza-6,9-methanonaphtho[1,8-ab]heptalen-2-yl)phenol], the IC50 (AGS cells [1]) was 1.2 nM, the IC50 (AGS cells [2]) was 32.9 nM and the IC50 (GP2d cells) was 7.2 nM.
Molecule `Oc1cc(-c2nc3c4c(nc(OC[C@@]56CCCN5C[C@H](F)C6)nc4c2F)N2C[C@H]4CC[C@H](N4)[C@H]2CO3)c2c(F)cccc2c1` [Example 3-p1, 5-Fluoro-4-((5aS,6S,9R)-1-fluoro-12-(((2R,7aS)-2-fluorotetrahydro-1H-pyrrolizin-7a(5 H)-yl)methoxy)-5a,6,7,8,9,10-hexahydro-5H-4-oxa-3,10a,11,13,14-pentaaza-6,9-methanonaphtho[1,8-ab]heptalen-2-yl)naphthalen-2-ol] has an IC50 (AGS cells [1]) of 17 nM, an IC50 (AGS cells [2]) of 95.3 nM and an IC50 (GP2d cells) of 13 nM.
`Oc1cc(-c2nc3c4c(nc(OC[C@@]56CCCN5C[C@H](F)C6)nc4c2F)N2C[C@H]4CC[C@H](N4)[C@H]2CO3)c2c(F)c(F)ccc2c1` [Example 8-p1, 5,6-Difluoro-4-((5aS,6S,9R)-1-fluoro-12-(((2R,7aS)-2-fluorotetrahydro-1H-pyrrolizin-7 a(5H)-yl)methoxy)-5a,6,7,8,9,10-hexahydro-5H-4-oxa-3,10a,11,13,14-pentaaza-6,9-methanonaphtho[1,8-ab]heptalen-2-yl)naphthalen-2-ol] gave an IC50 (AGS cells [1]) of 1.4 nM, an IC50 (AGS cells [2]) of 50.3 nM and an IC50 (GP2d cells) of 1.3 nM.
With `CCc1c(F)ccc2cc(O)cc(-c3nc4c5c(nc(OC[C@@]67CCCN6C[C@H](F)C7)nc5c3F)N3C[C@H]5CC[C@H](N5)[C@H]3CO4)c12` [Example 9-p1, 5-Ethyl-6-fluoro-4-((5aS,6S,9R)-1-fluoro-12-(((2R,7aS)-2-fluorotetrahydro-1H-pyrrolizin-7a(5H)-yl)methoxy)-5a,6,7,8,9,10-hexahydro-5H-4-oxa-3,10a,11,13,14-pentaaza-6,9-methanonaphtho[1,8-ab]heptalen-2-yl)naphthalen-2-ol] the IC50 (AGS cells [1]) was 0.4 nM, the IC50 (AGS cells [2]) was 5.8 nM and the IC50 (GP2d cells) was 0.9 nM.
